Test results taken from ChEMBL document CHEMBL1201862, “PubChem BioAssay data set” (2004).
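Results reflect a 48-hour exposure of cells in 96-well plates to compound at five concentrations. GI50: concentration for 50% inhibition of growth.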 Activity calls are given as the source filed them. Rule as the data show it: active = GI50 up to about 1.1 µM and inactive = higher.

Experiments:
Assay in all cases: NCI tumour cell line growth inhibition, 48 h
[1] = test system: SR
[2] = test system: SW-620
[3] = test system: ACHN
[4] = test system: OVCAR-5
[5] = test system: CAKI-1
[6] = test system: MDA-MB-231
[7] = test system: 786-0
[8] = test system: NCI-H226
[9] = test system: HT-29
[10] = test system: EKVX
[11] = test system: SNB-75
[12] = test system: RXF 393
[13] = test system: TK-10
[14] = test system: OVCAR-8
[15] = test system: HCT-116
[16] = test system: A549
[17] = test system: SNB-19
[18] = test system: IGROV-1
[19] = test system: T47D

Row | SMILES | GI50 [1] | GI50 [2] | GI50 [3] | GI50 [4] | GI50 [5] | GI50 [6] | GI50 [7] | GI50 [8] | GI50 [9] | GI50 [10] | GI50 [11] | GI50 [12] | GI50 [13] | GI50 [14] | GI50 [15] | GI50 [16] | GI50 [17] | GI50 [18] | GI50 [19]
1 | CCOC(=O)Nc1cc2c(c(N)n1)N=C(c1ccc3ccccc3c1)CN2 | 0.0329 µM (active) | 0.0485 µM (active) | 0.258 µM (active) | 10.5 µM (inactive) | 1.25 µM (inactive) | 2.39 µM (inactive) | 0.0809 µM (active) | 0.34 µM (active) | 0.301 µM (active) | 2.51 µM (inactive) | 0.111 µM (active) | 0.105 µM (active) | 4.36 µM (inactive) | < 0.0208 µM (active) | 0.0225 µM (active) | 0.299 µM (active) | 0.0614 µM (active) | 0.644 µM (active) | 22.8 µM (inactive)
2 | c1cnc2c(c1)Nc1cnncc1S2 | 53.3 µM (inactive) | > 100 µM (inactive) | > 100 µM (inactive) | > 100 µM (inactive) | 24.1 µM (inactive) | > 100 µM (inactive) | > 100 µM (inactive) | 86.9 µM (inactive) | > 100 µM (inactive) | > 100 µM (inactive) | 12.2 µM (inactive) | > 100 µM (inactive) | > 100 µM (inactive) | > 100 µM (inactive) | > 100 µM (inactive) | > 100 µM (inactive) | > 100 µM (inactive) | > 100 µM (inactive) | > 100 µM (inactive)
3 | O=C(NNCC(F)(F)F)c1ccncc1 | > 100 µM (inactive) | > 100 µM (inactive) | > 100 µM (inactive) | > 100 µM (inactive) | > 100 µM (inactive) | > 100 µM (inactive) | > 100 µM (inactive) | > 100 µM (inactive) | > 100 µM (inactive) | > 100 µM (inactive) | > 100 µM (inactive) | > 100 µM (inactive) | > 100 µM (inactive) | > 100 µM (inactive) | > 100 µM (inactive) | > 100 µM (inactive) | > 100 µM (inactive) | > 100 µM (inactive) | > 100 µM (inactive)
4 | COC(=O)[C@H](Cc1ccccc1)NC(=O)c1ccc(CNC(=O)/C=C/c2cccc(Oc3ccccc3)c2)cc1 | 6.79 µM (inactive) | 9.98 µM (inactive) | 16.4 µM (inactive) | > 100 µM (inactive) | 16.5 µM (inactive) | 18.7 µM (inactive) | 17.3 µM (inactive) | 52.7 µM (inactive) | 61.8 µM (inactive) | 30.8 µM (inactive) | 34.8 µM (inactive) | 7.31 µM (inactive) | 24.8 µM (inactive) | 36.4 µM (inactive) | 37 µM (inactive) | > 100 µM (inactive) | 28 µM (inactive) | 7.31 µM (inactive) | 56 µM (inactive)
5 | O=C(Cc1nc2ccc([N+](=O)[O-])cc2nc1O)C(=O)Nc1cc(Cl)c(Cl)cc1Cl | 41.8 µM (inactive) | > 100 µM (inactive) | > 100 µM (inactive) | > 100 µM (inactive) | > 100 µM (inactive) | > 100 µM (inactive) | > 100 µM (inactive) | > 100 µM (inactive) | > 100 µM (inactive) | 54.3 µM (inactive) | > 100 µM (inactive) | > 100 µM (inactive) | > 100 µM (inactive) | > 100 µM (inactive) | > 100 µM (inactive) | > 100 µM (inactive) | > 100 µM (inactive) | > 100 µM (inactive) | > 100 µM (inactive)
6 | O=C1N[C@H]2C(=O)c3c(Br)sc(Br)c3[C@H]2O1 | 1.87 µM (inactive) | 2.17 µM (inactive) | 6.78 µM (inactive) | 17.7 µM (inactive) | 4.53 µM (inactive) | 8.83 µM (inactive) | 8.26 µM (inactive) | 18.1 µM (inactive) | 2.47 µM (inactive) | 5.69 µM (inactive) | 16.5 µM (inactive) | 3.18 µM (inactive) | 22 µM (inactive) | 3.82 µM (inactive) | 2.77 µM (inactive) | 19.4 µM (inactive) | 15.9 µM (inactive) | 11.4 µM (inactive) | 14.3 µM (inactive)
7 | O=C1Nc2ccc(S(=O)(=O)O)cc2/C1=C1/Nc2ccc(Br)cc2C1=O | > 100 µM (inactive) | > 100 µM (inactive) | > 100 µM (inactive) | > 100 µM (inactive) | > 100 µM (inactive) | > 100 µM (inactive) | > 100 µM (inactive) | > 100 µM (inactive) | > 100 µM (inactive) | > 100 µM (inactive) | > 100 µM (inactive) | > 100 µM (inactive) | > 100 µM (inactive) | > 100 µM (inactive) | > 100 µM (inactive) | > 100 µM (inactive) | > 100 µM (inactive) | 19.1 µM (inactive) | > 100 µM (inactive)
8 | O=C(O)CCNc1ccccc1C(=O)O | > 100 µM (inactive) | > 100 µM (inactive) | > 100 µM (inactive) | > 100 µM (inactive) | > 100 µM (inactive) | > 100 µM (inactive) | > 100 µM (inactive) | > 100 µM (inactive) | > 100 µM (inactive) | 99.1 µM (inactive) | > 100 µM (inactive) | > 100 µM (inactive) | > 100 µM (inactive) | > 100 µM (inactive) | > 100 µM (inactive) | > 100 µM (inactive) | > 100 µM (inactive) | > 100 µM (inactive) | > 100 µM (inactive)
9 | COC(=O)NC(Nc1ccccn1)(C(F)(F)F)C(F)(F)F | > 100 µM (inactive) | > 100 µM (inactive) | > 100 µM (inactive) | > 100 µM (inactive) | > 100 µM (inactive) | > 100 µM (inactive) | > 100 µM (inactive) | > 100 µM (inactive) | > 100 µM (inactive) | > 100 µM (inactive) | > 100 µM (inactive) | 29.9 µM (inactive) | > 100 µM (inactive) | > 100 µM (inactive) | > 100 µM (inactive) | > 100 µM (inactive) | > 100 µM (inactive) | > 100 µM (inactive) | > 100 µM (inactive)
10 | O=C(O)C1CC=CCC1C(=O)Nc1cccc(O)c1 (centres undefined) | > 100 µM (inactive) | > 100 µM (inactive) | > 100 µM (inactive) | > 100 µM (inactive) | > 100 µM (inactive) | > 100 µM (inactive) | > 100 µM (inactive) | > 100 µM (inactive) | > 100 µM (inactive) | > 100 µM (inactive) | > 100 µM (inactive) | > 100 µM (inactive) | > 100 µM (inactive) | > 100 µM (inactive) | > 100 µM (inactive) | > 100 µM (inactive) | > 100 µM (inactive) | > 100 µM (inactive) | > 100 µM (inactive)
11 | COC(=O)/C=C/C(=O)Nc1cc(Cl)c(Cl)cc1CC(=O)N(C)[C@H]1CCCC[C@@H]1N1CCCC1 | 1.95 µM (inactive) | 3.63 µM (inactive) | 2.85 µM (inactive) | 15.8 µM (inactive) | 5.37 µM (inactive) | 13.3 µM (inactive) | 3.83 µM (inactive) | 15.3 µM (inactive) | 7.8 µM (inactive) | 13.1 µM (inactive) | 13.8 µM (inactive) | 4.01 µM (inactive) | 2.29 µM (inactive) | 5.27 µM (inactive) | 6.5 µM (inactive) | 21.5 µM (inactive) | 18.3 µM (inactive) | 7.21 µM (inactive) | 8.73 µM (inactive)
